# In patent EP0180615B1, “NOVEL ATRIAL NATRIURETIC/VASODILATOR POLYPEPTIDES” (priority 1984, dated 1995):
# Positions of bridges follow the written chain, without caps; N, C: chain ends. Residues, ends and D or L forms follow the SMILES beside them.
# Experiments:
# [1] = system: binding sites on vascular smooth muscle cells; test: 125I-ANVP binding and displacement on cultured vascular wall cells; set-up: species or system bovine; settings: unlabelled competitor; vascular smooth muscle cells (Table III)
# Protocol: Therefore, cells of vascular wall origin, e.g. bovine aortic smooth muscle and endothelial cells, were used to determine binding of ANVP compounds to specific receptors and associated cyclic GMP increases were measured.
# Binding assays were performed as follows: ANVPs were labelled with ^1251 according to the procedure of Schenk, et al., J. Biol. Chem., 259:14941-14951 (1984). This procedure utilizes glucose oxidase and lactoperoxidase mediated oxidations to transfer ^1251 to the tyrosine on the ANVP molecule. ^1251-ANVP was then added to 10 mm confluent cultures of vascular wall cells and incubated at 37 °C.
# Thus, the displacement of ^1251-ANVP binding by ANVPs and analogs as a function of concentration is a reflection of their potency to bind to the vascular wall and alter the contractile state of the vessel.
# [2] = system: cultured bovine aortic smooth muscle cells; test: cyclic GMP accumulation in cultured aortic smooth muscle cells; assay type: cell-based; settings: dose-response, % of maximal cyclic GMP increase (Figure 11A)
# Text: (§1) Since the agonistic action of ANVP in vascular smooth muscle not only results from binding to specific receptors, but is also associated with increases in cyclic GMP, the effects of ANVPs and analogs on cyclic GMP accumulation were examined using the same cultured cells. […] In Figure 11A & B, the relative activities of ANVP and analogs on cyclic GMP accumulation in aortic smooth muscle and endothelial cells are shown. The data is plotted in a dose-response relationship (log dose vs % of maximal cyclic GMP increases).
# [3] = system: cultured bovine aortic endothelial cells; test: cyclic GMP accumulation in cultured aortic endothelial cells; assay type: cell-based; settings: dose-response, % of maximal cyclic GMP increase (Figure 11B)
# Text: as §1
# isolated rat kidney = test: isolated perfused rat kidney
# Protocol: The activity of rANVP(126-149) was measured in the isolated rat kidney. Functioning isolated rat kidneys were perfused in a closed-circuit system, as described in Camargo, M.J.F. et al. Am.J.Physiol., 246:F447-F456 (1984). After control clearance periods, 0.1 to 1.0 µg of the compound was added to the perfusate. The effects on multiple parameters were noted. These peak values are expressed in Table I as the experimental data. It is clear that rANVP(126-149) caused urine flow rate, urinary sodium excretion, filtration fraction and glomerular filtration rate to increase.
# Isolated rat kidneys were treated as described in Table I. Control periods for each compound are denoted by C and experimental periods following the addition of compounds are denoted by E. V-urine flow rate UNaV-urinary sodium excretion rate, GFR-glomerular filtration rate. Data represent the mean of 3-8 experiments.
# Samples of the above expressed material were also tested for natriuretic and diuretic activity using the isolated perfused rat kidney model as described by Camargo, M. et al., Am. J. Physiol. 246:F447-F456-(1984). As shown in Table VIII material synthesized and secreted by yeast cultures containing YEp-a-NF-5 and purified as described above through the SP-Sephadex step increased urinary Na^+ excretion approximately 3-fold and urinary volume 2-fold as examined during repeated test periods of 10 minutes each. […] No significant increase occurred in urinary Na^+ excretion, urinary volume, glomerular filtration or renal resistance when the same experiment was performed on material synthesized and secreted by yeast cultures containing the reverse orientation control plasmid YEp-a-NF-7 and purified through SP-Sephadex@.
# intact rat = test: natriuresis after bolus injection in the intact anesthetized rat; assay type: in vivo; settings: Inactin anesthetized rats on constant saline infusion
# Protocol: Synthetic ANVP compounds rANVP(126-149), rANVP(126-150) and hANVP(127-151) were also found to be natriuretic in the intact rat. These compounds were administered as a bolus injection to Inactin anesthetized rats (100 mg/kg, average weight 399 g) which were maintained on a constant infusion of normal saline at 2.2 ml/hr. […] Data are expressed as mean ± SE.
# anesthetized dogs = test: renal and hemodynamic effects of constant infusion in anesthetized dogs; assay type: in vivo; settings: 1 µg/kg bolus, followed by 0.1 µg/kg/min for 1 hour
# Protocol: Renal and hemodynamic effects have also been measured in anesthetized dogs receiving a constant infusion of the compound rANVP(126-149) (1 µg/kg bolus, followed by 0.1 µg/kg/min for 1 hour). Immediate effects were noted on blood pressure, GFR and urine flow rate and electrolyte excretion which were sustained throughout the infusion. The "experimental" data presented for these parameters in Table IV are the average values obtained during the infusion. […] All these parameters returned to control (i.e. pre-infusion) levels during the recovery period (i.e. following termination of the infusion).
# (§2) Thus, ANVPs are able to block the effects of the renin-angiotensin system at several levels: (1) they antagonize the direct actions of angiotensin on its target organs (blood vessels and the adrenal); and (2) inhibit renin secretion, which leads to a reduced rate of angiotensin formation in the blood.
# isolated adrenal cells = test: angiotensin-stimulated aldosterone production by isolated adrenal cells; assay type: cell-based
# Text: as §2
# [4] = 0.1 to 1.0 µg added to the perfusate after control clearance periods, peak values
# [5] = 0.1 to 1.0 µg added to the perfusate, perfused in the absence of vasoconstrictors
molecule,measurement,setting,value
glucagon,displacement of 125I-ANVP binding,[1],not by a variety of hormones
angiotensin,displacement of 125I-ANVP binding,[1],not by a variety of hormones
"CC[C@H](C)[C@@H]1NC(=O)[C@H](CCCNC(=N)N)NC(=O)[C@H](CC(=O)O)NC(=O)[C@H]([C@@H](C)CC)NC(=O)[C@H](CCCNC(=N)N)NC(=O)CNC(=O)CNC(=O)[C@H](Cc2ccccc2)NC(=O)[C@@H](NC(=O)[C@H](CO)NC(=O)[C@H](CO)NC(=O)[C@@H](N)CCCNC(=N)N)CSSC[C@@H](C(=O)N[C@@H](CC(N)=O)C(=O)N[C@@H](CO)C(=O)N[C@@H](Cc2ccccc2)C(=O)N[C@@H](CCCNC(=N)N)C(=O)N[C@@H](Cc2ccc(O)cc2)C(=O)O)NC(=O)CNC(=O)[C@H](CC(C)C)NC(=O)[C@@H](C)NC(=O)[C@H](CO)NC(=O)[C@H](CCC(N)=O)NC(=O)[C@H](C)NC(=O)CNC1=O [[D-Ala^142]rANVP(126-150), [D-Ala'^42]rANVP(126-150)]",displacement of 125I-ANVP binding,[1],most reactive
same,"rank order of potency, cyclic GMP accumulation",[2],> rANVP(127-150) = other D amino acid substitutions
same,"rank order of potency, cyclic GMP accumulation",[3],> rANVP(127-150) = other D amino acid substitutions
vasopressin,displacement of 125I-ANVP binding,[1],not by a variety of hormones
"CC[C@H](C)[C@@H]1NC(=O)[C@H](CCCNC(=N)N)NC(=O)[C@H](CC(=O)O)NC(=O)[C@H]([C@@H](C)CC)NC(=O)[C@H](CCCNC(=N)N)NC(=O)CNC(=O)CNC(=O)[C@H](Cc2ccccc2)NC(=O)[C@@H](NC(=O)[C@H](CO)NC(=O)[C@H](CO)NC(=O)[C@@H](N)CCCNC(=N)N)CSSC[C@@H](C(=O)N[C@@H](CC(N)=O)C(=O)N[C@@H](CO)C(=O)N[C@@H](Cc2ccccc2)C(=O)N[C@@H](CCCNC(=N)N)C(=O)O)NC(=O)CNC(=O)[C@H](CC(C)C)NC(=O)CNC(=O)[C@H](CO)NC(=O)[C@H](CCC(N)=O)NC(=O)[C@H](C)NC(=O)CNC1=O [rANVP(126-149), rANVP (126-149)] (H-RSSCFGGRIDRIGAQSGLGCNSFR-OH; disulfide 4-20)",urinary sodium excretion,isolated rat kidney; [4],increase
same,urine flow rate,isolated rat kidney; [4],increase
same,filtration fraction,isolated rat kidney; [5],increase
same,glomerular filtration rate,isolated rat kidney; [5],increase
same,"rank order of potency, cyclic GMP accumulation",[2],> rANVP(127-150) = other D amino acid substitutions
same,"rank order of potency, cyclic GMP accumulation",[3],> rANVP(127-150) = other D amino acid substitutions
same,natriuretic in the intact rat,intact rat,natriuretic
same,GFR rose,anesthetized dogs,25-35%
same,Mean arterial pressure (MAP) fell,anesthetized dogs,10-15%
same,diuresis and natriuresis,anesthetized dogs,sustained diuresis and natriuresis
same,plasma aldosterone (PA),anesthetized dogs,significant decreases
same,plasma renin activity (PRA),anesthetized dogs,significant decreases
same,ability of angiotensin to stimulate aldosterone production,isolated adrenal cells,inhibits
CC[C@H](C)[C@@H]1NC(=O)[C@H](CCCNC(=N)N)NC(=O)[C@H](CC(=O)O)NC(=O)[C@H]([C@@H](C)CC)NC(=O)[C@H](CCCNC(=N)N)NC(=O)CNC(=O)[C@@H](C)NC(=O)[C@H](Cc2ccccc2)NC(=O)[C@@H](NC(=O)[C@H](CO)NC(=O)[C@H](CO)NC(=O)[C@@H](N)CCCNC(=N)N)CSSC[C@@H](C(=O)N[C@@H](CC(N)=O)C(=O)N[C@@H](CO)C(=O)N[C@@H](Cc2ccccc2)C(=O)N[C@@H](CCCNC(=N)N)C(=O)N[C@@H](Cc2ccc(O)cc2)C(=O)O)NC(=O)CNC(=O)[C@H](CC(C)C)NC(=O)CNC(=O)[C@H](CO)NC(=O)[C@H](CCC(N)=O)NC(=O)[C@H](C)NC(=O)CNC1=O [[D-Ala^131]rANVP(126-150)],"rank order of potency, cyclic GMP accumulation",[2],> rANVP(127-150) = other D amino acid substitutions
same,"rank order of potency, cyclic GMP accumulation",[3],> rANVP(127-150) = other D amino acid substitutions
